Results: article PMC9054546, “Synthesis and molecular modeling studies of cholinesterase inhibitor dispiro[indoline-3,2′-pyrrolidine-3′,3′′-pyrrolidines]” (RSC Advances, 2020)
“And” between values parts separate entries of the source, which are not always exact repeats. Identical values can stand only once. Like-named read-outs stand apart in the source and are kept apart here.

Assays:
[1] = target: T1, AChE (Homo sapiens, UniProt P22303); assay: 2D-QSAR (BMLR, CODESSA-Pro) model, AChE inhibitors; conditions: observed minus estimated IC50
T1 sequence (P22303 32-614): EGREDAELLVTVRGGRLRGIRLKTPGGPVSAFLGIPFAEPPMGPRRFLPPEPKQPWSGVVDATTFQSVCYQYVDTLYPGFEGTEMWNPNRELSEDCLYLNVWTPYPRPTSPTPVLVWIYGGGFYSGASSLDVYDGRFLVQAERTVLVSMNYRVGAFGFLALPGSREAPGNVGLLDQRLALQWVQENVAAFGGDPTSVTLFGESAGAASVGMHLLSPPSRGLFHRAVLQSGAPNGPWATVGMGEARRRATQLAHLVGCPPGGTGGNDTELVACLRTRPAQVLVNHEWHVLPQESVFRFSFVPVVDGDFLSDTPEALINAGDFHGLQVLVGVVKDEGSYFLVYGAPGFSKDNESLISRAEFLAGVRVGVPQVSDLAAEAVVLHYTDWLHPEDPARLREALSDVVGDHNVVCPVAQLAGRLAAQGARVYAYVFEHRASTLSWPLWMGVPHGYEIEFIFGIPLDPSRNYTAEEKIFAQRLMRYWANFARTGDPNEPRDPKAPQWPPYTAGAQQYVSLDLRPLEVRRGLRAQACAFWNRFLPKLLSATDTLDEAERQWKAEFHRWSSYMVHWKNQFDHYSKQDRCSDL
Excerpt: (§1) The cholinesterase properties observed were undertaken by CODESSA-Pro software accessible for optimizing 2D-QSAR models.[39–41] This is useful for well understanding the bio-observations and identifying the parameters necessary for bio-potency. Three descriptor QSAR models were developed due to the AChE and BChE inhibitory properties of the synthesized dispiro-compounds 8a–l (ESI Tables S4–S9, Fig. S40 and S41, details of the QSAR descriptors are also mentioned in the ESI). ^† […]
(§2) Goodness of the QSAR models was supported by the comparative values of the correlation coefficient (R^2) with their cross validation of leave one-out (R^2cvOO) and leave many-out (R^2cvMO) [R^2 = 0.923, 0.979; R^2cvOO = 0.882, 0.936; R^2cvMO = 0.904, 0.956, for AChE and BChE models, respectively]. Standard deviation (s^2) and Fisher criteria (F) values of the models also support their goodness (s^2 = 0.026, 0.005; […]. Additionally, the correlations of the observed and predicted values “specially the high potent synthesized compounds” add good support for the attained models. […]
(§3) Molecular modeling studies
(§4) The synthesized dispiro[indoline-3,2'-pyrrolidine-3',3''-pyrrolidines] 8a‒l […]
(§5) 2D-QSAR modeling by CODESSA-Pro (comprehensive descriptors for structural and statistical analysis) software. Geometry of the compounds was initially optimized by AM1 technique using hyperChem 8.0 then, uploaded to CODESSA-Pro for final geometrical structure optimization by MOPAC.10‒12 CODESSA-Pro calculated 656 molecular descriptors (constitutional, topological, geometrical, charge-related, semi-empirical, thermodynamical, molecular-type, atomic-type and bond-type descriptors) for […]
(§6) the exported bio-active agents. Mathematical transformation of the experimental values […]
(§7) QSAR model. The best multi-linear regression (BMLR) technique was utilized which is a stepwise search for the best n-parameter regression equations (where n stands for the number of descriptors used), based on the highest R2 (squared correlation coefficient), R2cvOO (squared cross-validation “leave one-out, LOO” coefficient), R2cvMO (squared cross-validation “leave many-out up to 20% of the training set, LMO” coefficient), F (Fisher statistical significance criteria) values, and s2 (standard deviation). The QSAR up to 3-descriptor model describing the biological activity of the bio-active agents were generated (obeying the thumb rule of 4:1 which is the ratio between the data points and the number of QSAR descriptor).
(§8) Minimum (>0.1) bond order for atom C is an atomic type descriptor with the […]
(§9) why the higher descriptor value, the lower AChE inhibitory efficacy of the tested agent as […]
(§10) 2/SQRT(TMSA) (MOPAC PC) is a charge related descriptor with relatively high […]
(§11) . Compounds with high descriptor value predicted low AChE
(§12) 0.11715). HDCA2 (area weighed surface charge of hydrogen bonding donor atoms) can be calculated by equ. (1). 13
(§13) HDCA2 = D … .DtotH‒donor (1)
(§14) Where, standsSD for the solvent accessible surface area of H-bonding donor H atoms (selected by threshold charge), is the partialqD charge on H-bonding donor H atoms (selected by threshold charge) and is the totalStot solvent accessible molecular surface […]
(§15) Square root of surface area for atom C is also a charge related descriptor with […]
(§16) . For this reason, the higher descriptor value of […]

[2] = target: T1, AChE; assay: biochemical; conditions: for SI(AChE/BChE): selectivity index = IC50 (AChE)/IC50 (BChE)
Procedure: (§17) Butyrylthiocholine iodide and acetylthiocholine were utilized as substrates in BChE and AChE assays, respectively, where DTNB was served as indicator. All compounds were dissolved in MeOH. […] Blank assays were performed by replacing the enzyme (20 μL) with buffer and their absorbances were recorded for correction of the spontaneous lysis of the indicator or inherent color of the inhibitor.
Selectivity index (SI) for acetyl and butyryl cholinesterases was calculated as follow:SI(AChE/BChE) = IC50 (AChE)/IC50 (BChE)SI(BChE/AChE) = […]

[3] = target: T2, BChE (Homo sapiens, UniProt P06276); assay: biochemical; conditions: for SI(BChE/AChE): selectivity index BChE/AChE
T2 sequence (P06276 29-602): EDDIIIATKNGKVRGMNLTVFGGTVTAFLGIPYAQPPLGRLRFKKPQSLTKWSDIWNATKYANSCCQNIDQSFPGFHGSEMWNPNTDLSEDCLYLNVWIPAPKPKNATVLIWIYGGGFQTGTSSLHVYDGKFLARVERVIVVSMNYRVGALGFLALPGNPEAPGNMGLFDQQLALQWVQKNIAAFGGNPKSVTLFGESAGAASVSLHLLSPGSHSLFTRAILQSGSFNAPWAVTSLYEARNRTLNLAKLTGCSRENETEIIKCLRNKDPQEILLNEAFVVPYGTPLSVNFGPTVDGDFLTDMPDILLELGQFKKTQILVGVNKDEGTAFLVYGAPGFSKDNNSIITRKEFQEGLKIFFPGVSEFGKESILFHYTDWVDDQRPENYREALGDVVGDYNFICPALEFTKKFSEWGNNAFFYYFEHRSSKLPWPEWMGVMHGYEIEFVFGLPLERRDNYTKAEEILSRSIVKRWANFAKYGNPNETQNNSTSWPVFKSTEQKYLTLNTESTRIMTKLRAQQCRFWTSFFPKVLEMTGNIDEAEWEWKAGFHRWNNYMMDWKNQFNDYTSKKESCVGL
Procedure: as §17, with “inhibitor. […]” for “inhibitor.”

[4] = system: RPE1 (human immortalized retinal pigment epithelial cell line); assay: Antiproliferative/cytotoxicity MTT assay on normal cell line; type: cell-based; conditions: RPE-1, 72 h incubation, tested at 100, 50, 25 and 12.5 μM, read-out: IC50 against RPE1
Excerpt: Antiproliferative properties of the synthesized agents 8a–l were considered against RPE1 (human immortalized retinal pigment epithelial cell line) normal cell line utilizing the standard MTT (tetrazolium salt) technique.[37]
The synthesized agents 8a–l were screened against RPE1 (human immortalized retinal pigment epithelial cell line) normal cell line to investigate their cytotoxicity by the standard mitochondrial dependent reduction of yellow MTT [3-(4,5-dimethylthiazol-2-yl)-2,5-diphenyl-tetrazolium bromide] to purple formazan technique.[37] Cells were suspended in DMEM in addition to 1% antibiotic–antimycotic mixture (10 000 μg mL^−1 potassium penicillin, 10 000 μg mL^−1 streptomycin sulfate and 25 μg mL^−1 amphotericin B), 10% fetal bovine serum and 1% L-glutamine at 37 °C, under 5% CO2 and 95% humidity. Cells were seeded at concentration of 30 000 cells per well in fresh complete growth medium in 96-well tissue culture microtiter plates for 24 h. […] 0.5% DMSO was used as negative control. Triplicate wells were prepared for each individual dose. After 72 h of incubation, medium was aspirated, 40 μl MTT salt (2.5 mg mL^−1) were added to each well and incubated for further 4 h at 37 °C. To stop the reaction and dissolve the formed crystals, 150 μL of 10% sodium dodecyl sulfate (SDS) in deionized water were added to each well and incubated overnight at 37 °C.
Data were collected as mean values for experiments performed in triplicates for each individual dose which had been measured by MTT assay. […] The percentage of cell survival was calculated according to the following equation. [drawing 1]
Statistical calculations for determination of the mean and standard error values were determined by SPSS 16 software.

[5] = target: T2, BChE; assay: 2D-QSAR (BMLR, CODESSA-Pro) model, BChE inhibitors; conditions: observed minus estimated IC50
Excerpt: as §1, §2, §3, §4, §5, §6, §7, §8, §9, §10, §11, §12, §13, §14, §15, §16
partial positively and negatively charged surface area can be calculated by equs. (2) and […]
PPSA3 = A … .. (2)A∈{δA>0}
PNSA3 = A … ..A∈{δA>0} (3)
Where, is the positively/negativelySA charged solvent accessible atomic surface area and qA is the atomic partial charge.
ZX Shadow/ZX rectangle is a geometrical descriptor with the highest coefficient […]
. The higher descriptor value of […]
compounds 8c and 8e, respectively). Relative shadow areas of a molecule can be determined by equ. (4). 13
Where, C is contour of the projection of the molecule on the plane defined by two principal axes of the molecule (k = XY, XZ or YZ plane), , , = X • ν –x or yρ –y or zS(k) […]
Maximum atomic state energy for atom O is an atomic type descriptor. […]

[6] = 10 min incubation at 25 °C, read at 405 nm, read-out: IC50 of AChE (μM) ± SD
[7] = log transformation of the observed IC50, read-out: Observed log(IC50, μM), AChE (converted)
[8] = 10 min incubation at 25 °C, read at 405 nm, read-out: IC50 of BChE (μM) ± SD
[9] = log transformation of the observed IC50, read-out: Observed log(IC50, μM), BChE (converted)

Compound | Error (difference between observed and estimated property values), AChE BMLR-QSAR model [1] [µM] | IC50 [2, 6] [µM] | IC50 [2, 7] [µM] | SI(AChE/BChE) [2] | IC50 [3, 8] | IC50 [3, 9] [µM] | SI(BChE/AChE) [3] | IC50 [4] [µM] | Error (difference between observed and estimated property values), BChE BMLR-QSAR model [5] [µM]
CN1CC(c2ccccc2)C2(CC(=O)N(c3ccccc3)C2=O)C12C(=O)Nc1ccccc12 (stereo not drawn) [Compound 8a, 1′-Methyl-1′′,4′-diphenyldispiro[indoline-3,2′-pyrrolidine-3′,3′′-pyrrolidine]-2,2′′,5′′-trione] | -13.41 | 117 | 117 | 1.43 | 81.8 µM | 81.8 | 0.70 | > 100 | 12.80
CN1CC(c2ccccc2)C2(CC(=O)N(c3ccccc3)C2=O)C12C(=O)Nc1ccc(Cl)cc12 (stereo not drawn) [Compound 8b, 5-Chloro-1′-methyl-1′′,4′-diphenyldispiro[indoline-3,2′-pyrrolidine-3′,3′′-pyrrolidine]-2,2′′,5′′-trione] | 0.13 | 13.6 ± 0.62 | 13.6 | 0.32 | 42.5 µM and 42.4 µM | 42.5 | 3.12 | > 100 | -6.64
COc1ccc2c(c1)C1(C(=O)N2)N(C)CC(c2ccccc2)C12CC(=O)N(c1ccccc1)C2=O (stereo not drawn) [Compound 8c, 5-Methoxy-1′-methyl-1′′,4′-diphenyldispiro[indoline-3,2′-pyrrolidine-3′,3′′-pyrrolidine]-2,2′′,5′′-trione] | 18.50 | 103 | 103 | 1.43 | 71.7 µM | 71.7 | 0.70 | > 100 | 7.44
CN1CC(c2ccc(Cl)cc2)C2(CC(=O)N(c3ccccc3)C2=O)C12C(=O)Nc1ccc(Cl)cc12 (stereo not drawn) [Compound 8d, 5-Chloro-4′-(4-chlorophenyl)-1′-methyl-1′′-phenyldispiro[indoline-3,2′-pyrrolidine-3′,3′′-pyrrolidine]-2,2′′,5′′-trione] | 13.92 | 24.3 ± 4.08 | 24.3 | 1.14 | 21.3 µM | 21.3 | 0.88 | > 100 | -5.91
COc1ccc(C2CN(C)C3(C(=O)Nc4ccc(Cl)cc43)C23CC(=O)N(c2ccccc2)C3=O)cc1 (stereo not drawn) [Compound 8f, 5-Chloro-4′-(4-methoxyphenyl)-1′-methyl-1′′-phenyldispiro[indoline-3,2′-pyrrolidine-3′,3′′-pyrrolidine]-2,2′′,5′′-trione] | 1.32 | 12.3 | 12.3 | 0.61 | 20.1 ± 0.16 µM | 20.1 | 1.64 | > 100 | 1.88
CN1CC(c2ccccc2)C2(CC(=O)N(c3ccc(Cl)cc3)C2=O)C12C(=O)Nc1ccc(Cl)cc12 (stereo not drawn) [Compound 8i, 5-Chloro-1′′-(4-chlorophenyl)-1′-methyl-4′-phenyldispiro[indoline-3,2′-pyrrolidine-3′,3′′-pyrrolidine]-2,2′′,5′′-trione] | -3.69 | 39.4 | 39.4 | 1.12 | 35.1 µM | 35.1 | 0.89 | > 100 | -3.48
CN1CC(c2ccc(Cl)cc2)C2(CC(=O)N(c3ccc(Cl)cc3)C2=O)C12C(=O)Nc1ccccc12 (stereo not drawn) [Compound 8j, 1′′,4′-Bis(4-chlorophenyl)-1′-methyldispiro[indoline-3,2′-pyrrolidine-3′,3′′-pyrrolidine]-2,2′′,5′′-trione] | -0.80 | 21 | 21 | 1.54 | 13.6 µM | 13.6 | 0.65 | > 100 | 1.51
CN1CC(c2ccc(Cl)cc2)C2(CC(=O)N(c3ccc(Cl)cc3)C2=O)C12C(=O)Nc1ccc(Cl)cc12 (stereo not drawn) [Compound 8k, 5-Chloro-1′′,4′-bis(4-chlorophenyl)-1′-methyldispiro[indoline-3,2′-pyrrolidine-3′,3′′-pyrrolidine]-2,2′′,5′′-trione] | -0.82 | 13.9 | 13.9 | 1.36 | 10.2 ± 0.76 µM | 10.2 | 0.73 | > 100 | 1.09
